Our source for the Ratio IC50 and solubility values is ChEMBL document CHEMBL5370601, “Synthesis and Binding Mode Predictions of Novel Siglec-7 Ligands” (J Med Chem, 2023).

Data set [1] concerns the target Sialic acid-binding Ig-like lectin 7 (Homo sapiens) (UniProt Q9Y286). The experiment in a line: Potency index, ratio of test compound IC50 to (2R,4S,5R,6R)-2-(3-(4-([1,1'-biphenyl]-4-yl)-1H-1,2,3-triazol-1-yl)propoxy)-5-acetamido-6-((1R,2R)-1,2-dihydroxy-3-(methylsulfonamido)propyl)-4-hydroxytetrahydro-2H-pyran-2-carboxylate Sodium IC50 for competitive inhibition of IgG1-fused human Siglec-7 Fc domain preincubated for 10 mins followed by addition of red blood cells incubated for 20 mins on ice by sandwich FACS analysis. To be noted: time 30.0 min. Background: A flow cytometer gives signals particle by particle.

The target is the same in data set [2]. Briefly: Potency index, ratio of test compound IC50 to (2R,4S,5R,6R)-2-(3-(4-([1,1'-biphenyl]-4-yl)-1H-1,2,3-triazol-1-yl)propoxy)-5-acetamido-4-hydroxy-6-((1R,2R)-1,2,3-trihydroxypropyl)tetrahydro-2H-pyran-2-carboxylate Sodium IC50 for competitive inhibition of IgG1-fused human Siglec-7 Fc domain preincubated for 10 mins followed by addition of red blood cells incubated for 20 mins on ice by sandwich FACS analysis. Conditions: time 30.0 min.

Data set [3] can be described thus: Solubility in water. The data set is classed as physicochemical. To be noted: buffer.
Data set [4] in a line: Solubility in methanol. The data set is classed as physicochemical.
Data set [5] is described as follows: Solubility in PBS. The data set is classed as physicochemical. To be noted: buffer.

Sequence of Sialic acid-binding Ig-like lectin 7 (Homo sapiens) (Q9Y286 whole entry, the tested form may be a part): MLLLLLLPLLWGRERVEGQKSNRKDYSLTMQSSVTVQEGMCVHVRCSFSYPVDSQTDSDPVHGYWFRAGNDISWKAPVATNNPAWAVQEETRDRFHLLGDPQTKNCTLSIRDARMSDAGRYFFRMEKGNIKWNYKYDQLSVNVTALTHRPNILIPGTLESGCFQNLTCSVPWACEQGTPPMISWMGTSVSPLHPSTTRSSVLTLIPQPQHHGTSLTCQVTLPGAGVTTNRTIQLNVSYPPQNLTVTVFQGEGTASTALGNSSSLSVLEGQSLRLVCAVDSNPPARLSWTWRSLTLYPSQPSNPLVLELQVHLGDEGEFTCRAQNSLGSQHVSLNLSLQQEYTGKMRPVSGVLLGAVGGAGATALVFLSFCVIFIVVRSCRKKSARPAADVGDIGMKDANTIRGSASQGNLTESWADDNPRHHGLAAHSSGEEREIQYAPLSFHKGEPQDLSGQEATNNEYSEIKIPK

On to `CS(=O)(=O)NC[C@@H](O)[C@@H](O)[C@@H]1O[C@@](OCCCn2cc(-c3ccc(-c4ccccc4)cc3)nn2)(C(=O)O)C[C@H](O)[C@H]1NC(=O)CF`, for which the Ratio IC50 in data set [1] stood at 1.5.
With `CC(=O)N[C@H]1[C@H]([C@H](O)[C@H](O)CC(=O)O)O[C@@](OCCCn2cc(-c3ccc(-c4ccccc4)cc3)nn2)(C(=O)O)C[C@@H]1O`, in data set [2], the Ratio IC50 was determined as 0.75.
For `CCC(=O)NCC[C@@H](O)[C@@H](O)[C@@H]1O[C@@](OCCCn2cc(-c3ccc(-c4ccccc4)cc3)nn2)(C(=O)O)C[C@H](O)[C@H]1NC(C)=O`, the Ratio IC50 in data set [2] is less than 0.5.
On to `N[C@H]1[C@H]([C@H](O)[C@H](O)CO)O[C@@](OCCCn2cc(-c3ccc(-c4ccccc4)cc3)nn2)(C(=O)O)C[C@@H]1O`, for which the solubility result in data set [3] and in data set [4] was “Insoluble” in each case.
For the compound `O=C(COCc1ccccc1)N[C@H]1[C@H]([C@H](O)[C@H](O)CO)O[C@@](OCCCn2cc(-c3ccc(-c4ccccc4)cc3)nn2)(C(=O)[O-])C[C@@H]1O.[Na+]`, the solubility entry in data set [3] and in data set [5] was “Insoluble” throughout.
With `CS(=O)(=O)NC[C@@H](O)[C@@H](O)[C@@H]1O[C@@](OCCCn2cc(-c3ccc(-c4ccccc4)cc3)nn2)(C(=O)O)C[C@H](O)[C@H]1NC(=O)CO`, the Ratio IC50 in data set [1] amounted to 1.2.
For the compound `O=C(CO)N[C@H]1[C@H]([C@H](O)[C@H](O)CO)O[C@@](OCCCn2cc(-c3ccc(-c4ccccc4)cc3)nn2)(C(=O)O)C[C@@H]1O`, the Ratio IC50 in data set [2] amounted to 1.5.
As for `CC(=O)N[C@H]1[C@H]([C@H](O)[C@H](O)CCNC(=O)Cc2ccccc2)O[C@@](OCCCn2cc(-c3ccc(-c4ccccc4)cc3)nn2)(C(=O)O)C[C@@H]1O`, in data set [2], the Ratio IC50 was less than 0.5.
As for `O=C(CF)N[C@H]1[C@H]([C@H](O)[C@H](O)CO)O[C@@](OCCCn2cc(-c3ccc(-c4ccccc4)cc3)nn2)(C(=O)O)C[C@@H]1O`, in data set [2], the Ratio IC50 worked out at 1.6.
As to `CS(=O)(=O)NC[C@@H](O)[C@@H](O)[C@@H]1O[C@@](OCCCn2cc(-c3ccc(-c4ccccc4)cc3)nn2)(C(=O)O)C[C@H](O)[C@H]1NC(=O)COCc1ccccc1`, in data set [1], the Ratio IC50 stood at 0.3.
